Data on one substance can be found in article PMC5640650, “NatD promotes lung cancer progression by preventing histone H4 serine phosphorylation to activate Slug expression” (Nature Communications, 2017).

In one data set the test system is Slug promoter. Briefly: ChIP assay on the Slug promoter, H1299 cells. Type of data set: cell-based, human. To be noted: vs Scr. The source says:
Fig. 6 Nt-acetylation of histone H4 antagonizes phosphorylation of histone H4 serine 1 to regulate Slug expression. a Western blot analysis of indicated histone H4 modifications in Scr and NatD-KD H1299 cells. Histone H4 served as a loading control. b ChIP analysis of the enrichment of indicated histone H4 modifications on the Slug promoter in Scr and NatD-KD H1299 cells. IgG served as a negative control. Results are shown as mean ± s.d. from three independent experiments; two-tailed Student’s t-test, *P < 0.05, **P < 0.01 compared with the Scr control. c ChIP analysis of the enrichment of H3K4me3 and H3K27me3 on the Slug promoter in Scr and NatD-KD H1299 cells. IgG served as a negative control. Results are shown as mean ± s.d. from three independent experiments; two-tailed Student’s t-test, **P < 0.01 compared with the Scr control. d Western blot analysis of indicated proteins from H1299 cells overexpressing NatDΔ or wild-type NatD. Histone H4 served as a loading control. e ChIP analysis of the enrichment of Nt-ac-H4 and H4S1ph on Slug promoter in H1299 cells overexpressing NatDΔ or wild-type NatD. IgG served as a negative control. Results are shown as mean ± s.d. from three independent experiments; two-tailed Student’s t-test, *P < 0.05, **P < 0.01 compared with the wild-type control
Fig. 7 Downregulation of Nt-acetylation of histone H4 facilitates nuclear accumulation of CK2α and its binding to histone H4 in lung cancer cells. a Representative confocal scanning images of CK2α localization in Scr and H1299 cells (left panel). The staining intensity of CK2α was quantified by software ImageJ from NIH (right diagram). Scale bars, 5 μm. […] Equal peptide biotinylated on C terminus is shown by dot blot analysis with streptavidin (middle panel). […] IgG served as a negative control. Results are shown as mean ± s.d. from three independent experiments; two-tailed Student’s t-test, **P < 0.01 compared with the indicated control. g Quantitative real-time PCR analysis of mRNA levels of CK2α and Slug normalized to GAPDH in Scr and NatD-KD H1299 cells in the absence or presence of siRNA to CK2α. NC, siRNA mimics negative control. Data are mean ± s.d. of three independent experiments; Student’s t-test, *P < 0.05, **P < 0.01 compared with the indicated control. h Western blot analysis of indicated proteins from Scr and NatD-KD H1299 cells in the absence or presence of siRNA to CK2α.
(§1) ChIP assays were performed with H1299 cells in accordance with standard protocols. Normal rabbit IgG served as the control. ChIP samples were analyzed by quantitative real-time PCR using the FastStart Universal SYBR Green Master (Roche). A standard curve was prepared for each set of primers using serial titration of the input DNA. The percentage of ChIP DNA was calculated relative to the input DNA from primer-specific standard curves using the Rotor-Gene 6000 Series Software 1.7. The primer sequences for ChIP are listed in Supplementary Table 4. Antibodies used were: H4S1ph (Abcam; ab14723), H4K5ac (Millipore; CS204381), H4R3me2a (Active Motif; 39705), H4R3me2s (Abcam; ab5823), CK2α (Abcam; ab70774), H3K4me3 (Abcam; ab8580), and H3K27me3 (Abcam; ab6002).

For data set [1], the system named is promoters of Zeb1, Zeb2, Twist1, and Snail. Briefly: ChIP assay on the promoters of Zeb1, Zeb2, Twist1, and Snail, H1299 cells. Format: cell-based, human. To be noted: vs Scr. As for the experimental part:
as §1
Supplementary Figure 7. Knockdown of NatD has no effect on enrichment of H4S1ph on some EMT-related gene promoters. (a-d) ChIP analysis of the enrichment of Nt-ac-H4, H4S1ph, H3K4me3 and H3K27me3 on the promoter of Zeb1(a), Zeb2(b), Twist1(c), and Snail (d) in Scr and NatD-KD H1299 cells. IgG served as a negative control. Results are shown as mean ± s.d. of three independent experiments; two-tailed Student’s t-test, **P<0.01 or *P<0.05 compared to Scr […]
(1 picture or pasted object on this page, not shown here)

Another data set relates to LLC cells. Briefly: Orthotopic implantation in C57BL/6 mice, LLC cells. Format: in vivo, murine. The settings on record: pleural cavity, 14 days, n = 5, vs Scr. As for the experimental part: All animal care and handling procedures were performed in accordance with the National Institutes of Health Guide for the Care and Use of Laboratory Animals, and were approved by the Institutional Review Board of Nanjing University (Nanjing, China). Female SCID mice and C57BL/6 mice (6–8 week old) were purchased from the Model Animal Research Center of Nanjing University (Nanjing, China), and were maintained under specific pathogen-free conditions at Nanjing University. The sample size was chosen with adequate power on the basis of the literature and our previous experience[46] and for each experiment it is indicated in the figure legend. Prior to carrying out the experiment, mice were randomly assigned to two different treatment groups (NatD-KD or Scr). For xenograft studies, 1 × 10^6 cells were resuspended in 100 µl PBS and injected into the lateral tail vein. Lung nodules and progression were monitored and quantified using the bioluminescence system (Caliper IVIS Lumina XR) or by counting under a dissecting microscope. […] Mice were killed at day 28 or day 30 to collect lungs, and lung nodules in serial sections were quantified microscopically. […] Lung nodules and progression were monitored and quantified using the bioluminescence system (Caliper IVIS Lumina XR). Mice were killed at day 14 or day 21 to collect lungs, and lung nodules in serial sections were quantified microscopically. […]

Regarding “NatD-KD2: Human NatD shRNA KD2: 5′-GGTTGAATGTCTCCATTGA-3′, lentiviral (shRNA lentiviral)”, in the data set with Slug promoter, the “enrichment of CK2α on Slug promoter” value is listed as “significantly increased”; the “enrichment of H3K4me3 on Slug promoter” value is “significantly reduced”; the “enrichment of H3K27me3 on Slug promoter” value is listed as “increased”; the “enrichment of H4R3me2a and H4K5ac on Slug promoter” value is reported as “significantly reduced”. In addition, in the data set with Slug promoter, the “enrichment of H4R3me2s on Slug promoter” value is “unchanged”, the “enrichment of H4S1ph on Slug promoter” value is listed as “significantly increased” and the “enrichment of Nt-ac-H4 on Slug promoter” value is reported as “significantly reduced”. Also, in data set [1], the “enrichment of H4S1ph, H3K4me3, and H3K27me3 on Zeb1, Zeb2, Twist1, Snail promoters” value is listed as “unchanged”; the “enrichment of Nt-ac-H4 on Zeb1, Zeb2, Twist1, Snail promoters” value was “reduced”. In the data set with LLC cells, the “migration and invasion, orthotopic model” value is recorded as “significantly reduced”.
